Measured values: US20060035925A1, “SUBSTITUTED 4H-CHROMENES AND ANALOGS AS ACTIVATORS OF CASPASES AND INDUCERS OF APOPTOSIS AND THE USE THEREOF” (Cytovia, Inc., priority 1999, published 2006)
Read-outs that look alike come from different tables or passages of the source.

Columns and labels:
[1] = test system: Human breast cancer cell line T-47D; test: Caspase cascade activation assay (N-(Ac-DEVD)-N'-ethoxycarbonyl-R110 fluorogenic substrate) in T-47D cells; format: cell-based; conditions: for Caspase activity (Ratio) T-47D: 24 h incubation with compound, ratio of net RFU (T=3 h) of test compound to control
Outline: (§1)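 Cells were exposed for 24 h at 37 °C to test compound at 0.016–1 μM final. Lysed with lysolecithin buffer (pH 7.2, DTT) containing 20 μM Ac-DEVD-R110 substrate, and fluorescence (ex 485/em 530 nm) read at 0 and 3 h at room temperature. EC50 from sigmoidal fit of net RFU ratio to control.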

[2] = test system: Human breast cancer cell line ZR-75-1; test: Caspase cascade activation assay (N-(Ac-DEVD)-N'-ethoxycarbonyl-R110 fluorogenic substrate) in ZR-75-1 cells; format: cell-based; conditions: for Caspase activity (Ratio) ZR-75-1: 24 h incubation with compound, ratio of net RFU (T=3 h) of test compound to control
Outline: as §1

[3] = Homo sapiens, T47D, 24 h, 24 h incubation, sigmoidal dose-response, read-out: Caspase potency EC50 (nM) T-47D
[4] = Homo sapiens, ZR-75-1, 24 h, ZR-75-1 cells, 24 h incubation, sigmoidal dose-response, read-out: Caspase potency EC50 (nM) ZR-75-1
[5] = 24 h incubation, sigmoidal dose-response, read-out: Caspase potency EC50 (nM) T-47D
[6] = ZR-75-1 cells, 24 h incubation, sigmoidal dose-response, read-out: Caspase potency EC50 (nM) ZR-75-1

| EC50 [1, 3] | EC50 [2, 4] | EC50 [1, 5] | EC50 [2, 6] | EC50 ([1]; Homo sapiens, T47D, additional compounds, Table II, read-out: Caspase potency EC50 (nM) T-47D, Table II) | EC50 ([2]; Homo sapiens, ZR-75-1, ZR-75-1 cells, additional compounds, Table II, read-out: Caspase potency EC50 (nM) ZR-75-1, Table II) | Compound | Caspase activity (Ratio) T-47D [1] | Caspase activity (Ratio) ZR-75-1 ([2]; ZR-75-1 cells) | Caspase activity (Ratio) T-47D, Table II ([1]; additional compounds, Table II) | Caspase activity (Ratio) ZR-75-1, Table II ([2]; ZR-75-1 cells, additional compounds, Table II) |
| --- | --- | --- | --- | --- | --- | --- | --- | --- | --- | --- |
| 16.5 nM | 14.8 nM | – | – | – | – | COc1cc(C2C3=CC=C4N=CC=C4C3OC(N)=C2C#N)cc(Br)c1O (centres unmarked) [Example 50, 2-Amino-4-(3-bromo-4-hydroxy-5-methoxyphenyl)-3-cyano-4H-indolo[4,5-b]pyran] | 10.1 | 10.6 | – | – |
| 25 nM | 14 nM | – | – | – | – | CCNc1ccc2c(c1)OC(N)=C(C#N)C2c1cc(OC)c(OC)c(OC)c1 (centres unmarked) [Example 13, 2-Amino-3-cyano-7-ethylamino-4-(3,4,5-trimethoxyphenyl)-4H-chromene] | 4.4 | 7.0 | – | – |
| 36.8 nM | 18.6 nM | – | – | – | – | COc1cc(C2C3=CC=C4C=CN=C4C3OC(N)=C2C#N)cc(Br)c1O (centres unmarked) [Example 51, 2-Amino-4-(3-bromo-4-hydroxy-5-methoxyphenyl)-3-cyano-4H-indolo[7,6-b]pyran] | 11.5 | 6.7 | – | – |
| 1390 nM | 786 nM | – | – | – | – | N#CC1=C(N)Oc2cc(N)ccc2C1c1cccc(F)c1 (centres unmarked) [Example 2M, 2-Amino-3-cyano-7-amino-4-(3-fluorophenyl)-4H-chromene] | 5.8 | 6.9 | – | – |
| 67.7 nM | 35.9 nM | – | – | – | – | COc1cc(C2C(C#N)=C(N)Oc3cc(N)ccc32)cc(Br)c1O (centres unmarked) [Example 49, 3-Cyano-4-(3-bromo-4-hydroxy-5-methoxyphenyl)-2,7-diamino-4H-chromene] | 10.1 | 5.8 | – | – |
| – | – | 2910 nM | 1470 nM | – | – | COc1cc(C2C(C#N)=C(N)Oc3cc(N4CCNCC4)ccc32)cc(Br)c1OC (centres unmarked) [Example 66B, 2-Amino-3-cyano-7-piperazine-4-(3-bromo-4,5-dimethoxyphenyl)-4H-chromene] | 5.7 | 6.8 | – | – |
| 147 nM | 114 nM | – | – | – | – | COc1cc(C2C(C#N)=C(N)Oc3cc(Cl)ccc32)cc(Br)c1OC (centres unmarked) [Example 63, 2-Amino-4-(3-bromo-4,5-dimethoxy-phenyl)-7-chloro-3-cyano-4H-chromene] | 9.1 | 10.1 | – | – |
| 254 nM | 147 nM | – | – | – | – | COc1ccc2c(c1)OC(N)=C(C#N)C2c1cccnc1 (centres unmarked) [Example 17, 2-Amino-3-cyano-7-methoxy-4-(3-pyridyl)-4H-chromene] | 5.9 | 8.2 | – | – |
| 10 nM | 3 nM | – | – | – | – | N#CC1=C(N)OC2C3=CC=NC3=CC=C2C1c1cncc(Br)c1 (centres unmarked) [Example 36, 2-Amino-3-cyano-4-(5-bromo-3-pyridyl)-4H-indolo[4,5-b]pyran] | 5.9 | 2.9 | – | – |
| > 10000 nM | > 10000 nM | – | – | – | – | CC1(c2ccccc2)C(C#N)=C(N)Oc2ccccc21 (centres unmarked) [Example 68B, 2-Amino-3-cyano-4-phenyl-4-methylchromene] | 1.0 | 1.8 | – | – |
| – | – | 166 nM | 86.8 nM | – | – | COc1cc(C2C(C#N)=C(N)Oc3cc(N4CCOCC4)ccc32)cc(Br)c1OC (centres unmarked) [Example 66C, 2-Amino-3-cyano-7-N-morpholine-4-(3-bromo-4,5-dimethoxyphenyl)-4H-chromene] | 10.4 | 7.4 | – | – |
| 256 nM | 138 nM | – | – | – | – | COc1cccc(C2C(C#N)=C(N)Oc3c2ccc(N)c3N)c1 (centres unmarked) [Example 44, 3-Cyano-2,7,8-triamino-4-(3-methoxyphenyl)-4H-chromene] | 7.0 | 9.6 | – | – |
| – | – | 314 nM | 216 nM | – | – | N#CC1=C(N)Oc2c(ccc3cc[nH]c23)C1c1cccc(C(F)(F)F)c1 (centres unmarked) [Example 54, 2-Amino-3-cyano-4-(3-trifluromethyl-phenyl)-4H-indolo[7,6-b]pyran] | 7.3 | 7.5 | – | – |
| 323 nM | 193 nM | – | – | – | – | N#CC1=C(N)Oc2cc(N)ccc2C1c1cc(F)cc(F)c1 (centres unmarked) [Example 2O, 2-Amino-3-cyano-7-amino-4-(3,5-difluorophenyl)-4H-chromene] | 6.4 | 7.1 | – | – |
| 116 nM | 50 nM | – | – | – | – | CCNc1ccc2c(c1)OC(N)=C(C#N)C2c1cccc([N+](=O)[O-])c1 (centres unmarked) [Example 9, 2-Amino-3-cyano-7-ethylamino-4-(3-nitrophenyl)-4H-chromene] | 7.6 | 12.8 | – | – |
| 143 nM | 81.9 nM | – | – | – | – | COc1cccc(C2C3=CC=C4C=CN=C4C3OC(N)=C2C#N)c1 (centres unmarked) [Example 43, 2-Amino-3-cyano-4-(3-methoxyphenyl)-4H-indolo[7,6-b]pyran] | 6.5 | 5.9 | – | – |
| – | – | > 1000 nM | 567 nM | – | – | 2-Amino-3-ethoxycarboxyl-4-(3-bromo-4,5-dimethoxy-phenyl)-4H-indolo[4,5-b]pyran [Example 72] | 1.2 | 3.6 | – | – |
| – | – | – | – | 30 nM | 15 nM | COc1cc(C2C(C#N)=C(N)Oc3cc(N)ccc32)cc(OC)c1OC (centres unmarked) [2,7-Diamino-3-cyano-4-(3,4,5-trimethoxyphenyl)-4H-chromene] | – | – | 4.2 | 3.5 |
| – | – | 110 nM | 79.4 nM | – | – | COc1cc(C2C(C#N)=C(N)Oc3cc(N4CCCC4)ccc32)cc(Br)c1OC (centres unmarked) [Example 66A, 2-Amino-3-cyano-7-pyrrolidine-4-(3-bromo-4,5-dimethoxyphenyl)-4H-chromene] | 3.7 | 6.0 | – | – |
| 45 nM | 28 nM | – | – | – | – | COc1ccc2c(c1)OC(N)=C(C#N)C2c1cccc([N+](=O)[O-])c1 (centres unmarked) [Example 11, 2-Amino-3-cyano-7-methoxy-4-(3-nitrophenyl)-4H-chromene] | 4.5 | 6.6 | – | – |
| 283 nM | 177 nM | – | – | – | – | COc1cncc(C2C(C#N)=C(N)Oc3cc(N)ccc32)c1 (centres unmarked) [Example 39, 2,7-Diamino-3-cyano-4-(5-methoxy-3-pyridyl)-4H-chromene] | 8.4 | 14 | – | – |
| 7850 nM | 3720 nM | – | – | – | – | N#CC1=C(N)Nc2ccccc2C1c1ccccc1 (centres unmarked) [Example 71, 2-Amino-3-cyano-4-phenyl-1,4-dihydroquinoline] | 3.1 | 4.1 | – | – |
| 107 nM | 43 nM | – | – | – | – | Cc1cncc(C2C(C#N)=C(N)Oc3cc(N)ccc32)c1 (centres unmarked) [Example 34, 2,7-Diamino-3-cyano-4-(5-methyl-3-pyridyl)-4H-chromene] | 4.7 | 5.6 | – | – |
| 62 nM | 26 nM | 61.8 nM | 26.3 nM | – | – | COc1cccc(C2C3=CC=C4N=CC=C4C3OC(N)=C2C#N)c1 (centres unmarked) [Example 46, 2-Amino-3-cyano-4-(3-methoxyphenyl)-4H-indolo[4,5-b]pyran] | 6.4 | 7.1 | – | – |
| 2900 nM | 1630 nM | – | – | – | – | Cc1cncc(C2C3=CC=C4N=CC=C4C3OC(N)=C2C#N)n1 (centres unmarked) [Example 58, 2-Amino-3-cyano-4-(6-methyl-pyrazin-2-yl)-4H-indolo[4,5-b]pyran] | 4.1 | 7.0 | – | – |
| 146 nM | 102 nM | – | – | – | – | Cc1cccc(C2C(C#N)=C(N)Oc3cc(N)ccc32)c1 (centres unmarked) [Example 23, 2,7-Diamino-3-cyano-4-(3-methylphenyl)-4H-chromene] | 4.6 | 5.2 | – | – |
| 72 nM | 14 nM | – | – | – | – | CCNc1ccc2c(c1)OC(N)=C(C#N)C2c1cc(Br)c(OC)c(OC)c1 (centres unmarked) [Example 2A, 2-Amino-3-cyano-7-ethylamino-4-(3-bromo-4,5-dimethoxyphenyl)-4H-chromene] | 4.0 | 4.1 | – | – |
| 27 nM | 12 nM | – | – | – | – | CCNc1ccc2c(c1)OC(N)=C(C#N)C2c1cncc(C)c1 (centres unmarked) [Example 31, 2-Amino-3-cyano-7-ethylamino-4-(5-methyl-3-pyridyl)-4H-chromene] | 7.9 | 11.0 | – | – |
| 149 nM | 99.3 nM | – | – | – | – | COc1cc(C2C(C#N)=C(N)Oc3c2ccc(N)c3O)cc(Br)c1OC (centres unmarked) [Example 74, 2-Amino-3-cyano-7-amino-8-hydroxy-4-(3-bromo-4,5-dimethoxyphenyl)-4H-chromene] | 7.4 | 8.9 | – | – |

| Compound | EC50 [1, 3] | EC50 [2, 4] | EC50 [1, 5] | EC50 [2, 6] | EC50 ([1]; Homo sapiens, T47D, additional compounds, Table II, read-out: Caspase potency EC50 (nM) T-47D, Table II) | EC50 ([2]; Homo sapiens, ZR-75-1, ZR-75-1 cells, additional compounds, Table II, read-out: Caspase potency EC50 (nM) ZR-75-1, Table II) | Caspase activity (Ratio) T-47D [1] | Caspase activity (Ratio) ZR-75-1 ([2]; ZR-75-1 cells) | Caspase activity (Ratio) T-47D, Table II ([1]; additional compounds, Table II) | Caspase activity (Ratio) ZR-75-1, Table II ([2]; ZR-75-1 cells, additional compounds, Table II) |
| --- | --- | --- | --- | --- | --- | --- | --- | --- | --- | --- |
| C1CCNCC1.C1CCNCC1.COc1cc(C2C(C#N)=C(N)Oc3c2ccc2[nH]ccc32)cc(Br)c1OP(=O)(O)O (centres unmarked) [Example 69, 2-Amino-3-cyano-4-(3-bromo-4-phosphoric acid-dipiperidine salt-5-methoxyphenyl)-4H-indolo[4,5-b]pyran] | – | – | 582 nM | 284 nM | – | – | 3.5 | 5.6 | – | – |
